Biological target: T1, TRPM3 V990M mutant (Homo sapiens, UniProt Q9HCF6, V1015M)
T1 construct: expressed in transfected cells; host or cells: HEK293T
T1 sequence (Q9HCF6 1-1325 isoform Q9HCF6-10 V990M): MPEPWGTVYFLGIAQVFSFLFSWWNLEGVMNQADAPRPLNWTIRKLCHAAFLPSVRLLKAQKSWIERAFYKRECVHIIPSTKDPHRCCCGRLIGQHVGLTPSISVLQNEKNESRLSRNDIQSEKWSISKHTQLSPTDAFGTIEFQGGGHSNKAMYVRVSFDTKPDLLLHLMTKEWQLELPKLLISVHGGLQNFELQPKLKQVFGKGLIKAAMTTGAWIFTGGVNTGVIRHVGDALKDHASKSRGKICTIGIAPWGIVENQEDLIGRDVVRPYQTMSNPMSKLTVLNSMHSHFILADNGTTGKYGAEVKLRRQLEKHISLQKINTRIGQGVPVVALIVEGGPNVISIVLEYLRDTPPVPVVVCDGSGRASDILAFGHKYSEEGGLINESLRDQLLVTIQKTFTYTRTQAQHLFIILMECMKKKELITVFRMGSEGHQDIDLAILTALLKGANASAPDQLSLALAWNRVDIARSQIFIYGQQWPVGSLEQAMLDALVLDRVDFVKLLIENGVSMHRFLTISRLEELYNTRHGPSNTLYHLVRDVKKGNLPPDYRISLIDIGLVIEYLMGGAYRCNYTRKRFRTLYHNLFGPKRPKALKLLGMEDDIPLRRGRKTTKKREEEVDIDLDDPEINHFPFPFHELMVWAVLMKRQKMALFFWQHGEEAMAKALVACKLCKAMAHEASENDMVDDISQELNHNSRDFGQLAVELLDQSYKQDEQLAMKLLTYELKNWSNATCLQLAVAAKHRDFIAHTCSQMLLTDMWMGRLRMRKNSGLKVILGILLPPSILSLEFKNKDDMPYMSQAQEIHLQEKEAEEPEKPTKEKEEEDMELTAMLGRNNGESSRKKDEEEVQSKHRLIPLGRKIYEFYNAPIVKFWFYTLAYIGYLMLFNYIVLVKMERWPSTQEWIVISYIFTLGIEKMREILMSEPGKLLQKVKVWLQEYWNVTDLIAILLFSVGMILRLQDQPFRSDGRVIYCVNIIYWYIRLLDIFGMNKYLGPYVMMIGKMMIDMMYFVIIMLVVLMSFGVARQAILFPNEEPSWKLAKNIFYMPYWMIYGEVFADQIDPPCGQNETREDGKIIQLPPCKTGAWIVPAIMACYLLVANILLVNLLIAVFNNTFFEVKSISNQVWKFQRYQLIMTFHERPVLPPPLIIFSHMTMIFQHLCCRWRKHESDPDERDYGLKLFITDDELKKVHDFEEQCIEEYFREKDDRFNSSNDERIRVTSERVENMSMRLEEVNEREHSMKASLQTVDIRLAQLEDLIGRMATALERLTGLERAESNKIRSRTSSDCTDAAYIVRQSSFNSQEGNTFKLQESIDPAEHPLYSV
Assay: Whole-cell patch clamp, HEK293T cells expressing V990M hTRPM3
Assay type: cell-based
Method: HEK293T cells ([Graham et al., 1977]) were cultured as described previously ([Vriens et al., 2007]) and used up in passage number 14. HEK293T cells were tested for the lack of mycoplasma and transiently transfected with 2 µg of DNA using TransIT transfection reagent (Mirus) 36–48 hr before the measurements. In case of co-cultures a ratio of 1:1 between hTRPM3-YFP WT and mutants-YFP DNA was used.
All mutants were obtained by the standard PCR overlap extension method using hTRPM3 directly linked to YFP from pCAGGS/IRES-GFP vector ([Vriens et al., 2007]). Accuracy of all mutant sequences was verified by sequencing of the entire DNA constructs.
Standard whole-cell patch-clamp recordings were performed with an EPC-10 amplifier and the PatchMasterPro Software (HEKA Elektronik, Lambrecht, Germany). Current measurements were performed at a sampling rate of 20 kHz and currents were digitally filtered at 2.9 kHz. In all measurements, 70% of the series resistance was compensated. The standard internal solution contained (in mM): 100 CsAsp, 45 CsCl, 10 EGTA, 10 HEPES, 1 MgCl2 (pH 7.2 with CsOH) or 140 potassium gluconate, 5 EGTA, 1 MgCl2, 10 HEPES and 2 NaATP (pH 7.3 with CsOH) for the measurements of Gβγ mediated inhibition and the standard extracellular solution contained (in mM): 150 NaCl, 1 MgCl2, 10 HEPES (pH 7.4 with NaOH). The standard patch pipette resistance was between 2 MΩ and 4 MΩ when filled with pipette solution. In experiments allowing Ca^2+-dependent desensitization of TRPM3, Mg^2+ was replaced by Ca^2+ in the extracellular solution, and Cs^+ was replaced by Na^+ in the pipette solution. […] The chemical ligands were dissolved in bath solution from a stock diluted in DMSO.

Row | SMILES | Activation of whole-cell currents in the absence of PS (Clt 10 µM) | Block of PS-activated currents (primidone 25 µM, PS 40 µM, ±80 mV, cells co-expressing µ-opioid receptor)
1 | Clc1ccccc1C(c1ccccc1)(c1ccccc1)n1ccnc1 [Clt, clotrimazole] | induced robust currents | –
2 | CCC1(c2ccccc2)C(=O)NCNC1=O [primidone] | – | ~ 50%

Reference: publication PMC7253177, “Gain of channel function and modified gating properties in TRPM3 mutants causing intellectual disability and epilepsy” (eLife, 2020)
